Experimental findings from patent US11071738B2, “Therapeutic agent for fatty liver diseases and therapeutic agent for adiposity” (Hiroshima University, priority 2017, dated 2021) are described below.

T1 sequence (Q13526 whole entry): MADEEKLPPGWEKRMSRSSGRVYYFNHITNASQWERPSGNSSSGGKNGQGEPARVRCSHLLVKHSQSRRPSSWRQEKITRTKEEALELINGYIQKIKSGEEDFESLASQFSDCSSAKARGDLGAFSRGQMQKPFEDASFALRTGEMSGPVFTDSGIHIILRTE

The first series has as its target T1, Pin1 (Homo sapiens, UniProt Q13526).
T1 construct: endogenous in cells; host or cells: 293T cells
Nature of the series: Cell-based Pin1 inhibition assay with AMPK phosphorylation level as index. Further details: key to Pin1 inhibition activity: +++: a higher level of AMPK phosphorylation is promoted, as compared with C1; ++: a similar level of AMPK phosphorylation is promoted, as compared with C1; +: a lower level of AMPK phosphorylation is promoted, as compared with C1; −: no or almost no promotion is found in AMPK phosphorylation. The settings on record: 293T cells, compound at 100 μM, 10 mM 2-DG, pAMPK blot compared with C1. The method, then:
To evaluate the inhibitory activity of each synthesized compound against the function of Pin1, a cell-based assay was performed according to the method previously developed by the inventors (Yusuke Nakatsu et al., Journal of Biological Chemistry, 2015, Vol. 290, No. 40, pp. 24255-24266), in which the phosphorylation level of AMPK (AMP-activated protein kinase), a protein whose phosphorylation is inhibited by Pin1, was examined as an index.
Briefly, 293T cells were plated on a collagen-coated 24-well plate. Forty-eight hours later, each compound synthesized in the preceding example (at 100 μM) was added to the plate, and the plate was left to stand in an incubator for 30 minutes. Subsequently, 10 mM 2-DG was added to the plate, and one hour later, each sample was collected with a buffer containing mercaptoethanol and SDS.
SDS-PAGE and blotting were performed, and blocking was then performed with 3% BSA for 1 hour, according to conventional protocols. Subsequently, a pAMPK antibody (Cell Signaling; diluted 1:2000 in Can Get Signal Solution 1, Toyobo) as a primary antibody, and an HRP-linked anti rabbit IgG (GE Healthcare; diluted 1:4000 in Can Get Signal Solution 2, Toyobo) as a secondary antibody were allowed to react at ambient temperature for 1 hour prior to detection.
The inhibitory activity against the function of Pin1 was evaluated by comparing the inhibition levels between each compound and a known Pin1 inhibitor, C1, as indicated below: […]
With `O=C(O[C@H](Cc1ccc2ccccc2c1)C(=O)OCc1ccccc1)c1ccc2ccccc2c1` [Compound H-21], the Pin1 inhibition activity entry is recorded as “− (Hydrolysis causes conversion to H-30, which is active)”. In the case of `O=C(O[C@H](Cc1ccc2ccccc2c1)C(=O)O)c1ccc(C(O)c2ccccc2)cc1` (some centres unmarked) [Compound H-23], the Pin1 inhibition activity entry is “++”.

In the case of `O=C(O[C@H](Cc1ccc2ccccc2c1)C(=O)O)c1ccc2ccccc2c1` [Compound H-30], the Pin1 inhibition activity result was “++”.

As to `COc1ccc(-c2cc(C(=O)O[C@H](Cc3ccc4ccccc4c3)C(=O)O)c(C)o2)cc1` [Compound H-32], the Pin1 inhibition activity entry is “+”. Same read-out and setting: as for `O=C(O[C@H](Cc1ccc2ccccc2c1)C(=O)O)c1ccc(-c2ccccc2)cc1` [Compound H-33], the entry is “+”. The same measure, in the same setting: as for `COC(=O)c1ccc2cc(C(=O)N[C@H](Cc3ccc4ccccc4c3)C(=O)O)ccc2c1` [Compound H-62], the entry is “+”; as for `O=C(O)[C@@H](Cc1ccc2ccccc2c1)NC(=O)C1(O)c2ccccc2-c2ccccc21` [Compound H-101], “++”; as for `O=C(CC1c2ccccc2-c2ccccc21)N[C@H](Cc1ccc2ccccc2c1)C(=O)O` [Compound H-103], “+++”. On the same count and under the same terms, as for `O=C(N[C@H](Cc1ccc2ccccc2c1)C(=O)OCc1ccccc1)C1c2ccccc2-c2ccccc21` [Compound H-105], the entry is “− (Hydrolysis causes conversion to H-109, which is active)”.

Regarding `O=C(CC1c2ccccc2-c2ccccc21)O[C@H](Cc1ccc2ccccc2c1)C(=O)O` [Compound H-106], the Pin1 inhibition activity entry is “++”.

On to `O=C(N[C@H](Cc1ccc2ccccc2c1)C(=O)O)C1c2ccccc2-c2ccccc21` [Compound H-109], for which the Pin1 inhibition activity result is reported as “+++”. Still for that read-out and setting: as for `O=C(O[C@H](Cc1ccc2ccccc2c1)C(=O)O)c1ccc(Oc2ccccc2)cc1` [Compound H-123], the entry is “++”. Still for that read-out and setting: as for `O=C(O[C@H](Cc1ccc2ccccc2c1)C(=O)O)c1cccc(Oc2ccccc2)c1` [Compound H-130], the entry is “++”. `O=C(O[C@H](Cc1ccc2ccccc2c1)C(=O)O)c1ccccc1Oc1ccccc1` [Compound H-132]: the Pin1 inhibition activity result is recorded as “+”. Still for that read-out and setting: with `O=C(O[C@H](Cc1ccc2ccccc2c1)C(=O)O)C(c1ccccc1)c1ccccc1` [Compound H-134] the entry was “++”; with `O=C(O[C@@H](Cc1ccc2ccccc2c1)C(=O)O)C1c2ccccc2-c2ccccc21` [Compound H-141], “+++”. In the case of `O=C(Cc1ccc2ccccc2c1)O[C@H](Cc1ccc2ccccc2c1)C(=O)O` [Compound H-149], the Pin1 inhibition activity result is “+”. On the same count and under the same terms, as for `O=C(Cc1cccc2ccccc12)O[C@H](Cc1ccc2ccccc2c1)C(=O)O` [Compound H-151], the entry is “++”; as for `O=C(O)[C@@H](Cc1ccc2ccccc2c1)OC(=O)N1c2ccccc2Oc2ccccc21` [Compound H-157], “++”. For the compound `O=C(Cc1ccc2ccccc2c1)N[C@H](Cc1ccc2ccccc2c1)C(=O)O` [Compound H-158], the Pin1 inhibition activity result was “++”. The same measure, in the same setting: with `O=C(O)[C@@H](Cc1ccc2ccccc2c1)NC(=O)N(c1ccccc1)c1ccccc1` [Compound H-161] the entry was “++”; with `O=C(O)[C@@H](Cc1ccc2ccccc2c1)NC(=O)N1c2ccccc2Oc2ccccc21` [Compound H-162], “++”; with `O=C(O)[C@@H](Cc1ccc2ccccc2c1)NC(=O)N1c2ccccc2C=Cc2ccccc21` [Compound H-164], “+”. Regarding `O=C(O)[C@@H](Cc1ccc2ccccc2c1)OC(=O)n1c2ccccc2c2ccccc21` [Compound H-175], the Pin1 inhibition activity entry is “+++”. Same read-out and setting: as for `O=C(COc1ccccc1)O[C@H](Cc1ccc2ccccc2c1)C(=O)O` [Compound H-176], the entry is “++”; as for `O=C(COc1ccc2ccccc2c1)O[C@H](Cc1ccc2ccccc2c1)C(=O)O` [Compound H-177], “++”. As for `O=C(O)[C@@H](Cc1ccc2ccccc2c1)NC(=O)N1c2ccccc2CCc2ccccc21` [Compound H-178], the Pin1 inhibition activity entry is given as “+++”. The same measure, in the same setting: as for `O=C(COc1cccc2ccccc12)O[C@H](Cc1ccc2ccccc2c1)C(=O)O` [Compound H-179], the entry is “+++”; as for `O=C(Cc1c[nH]c2ccccc12)O[C@H](Cc1ccc2ccccc2c1)C(=O)O` [Compound H-180], “++”; as for `COc1cc(OC)cc(C(=O)O[C@H](Cc2ccc3ccccc3c2)C(=O)O)c1` [Compound H-198], “+”. Take `O=C(O[C@H](Cc1ccc2ccccc2c1)C(=O)O)c1cc(Cl)cc(Cl)c1` [Compound H-200]: the Pin1 inhibition activity entry is “+”.

Regarding `Cc1cc(C)cc(C(=O)O[C@H](Cc2ccc3ccccc3c2)C(=O)O)c1` [Compound H-210], the Pin1 inhibition activity entry was “+”. The same measure, in the same setting: with `CN(C)c1ccc(C(=O)O[C@H](Cc2ccc3ccccc3c2)C(=O)O)cc1` [Compound H-212] the entry was “+”.

In the case of `CC(C)(C)OC(=O)N[C@@H](Cc1ccccc1)C(=O)O[C@H](Cc1ccc2ccccc2c1)C(=O)O` [Compound H-248], the Pin1 inhibition activity entry is given as “+”. Still for that read-out and setting: as for `Cc1ccc(C(=O)O[C@H](Cc2ccc3ccccc3c2)C(=O)O)cc1C` [Compound H-265], the entry is “+”. On the same count and under the same terms, as for `COc1ccc(C(=O)O[C@H](Cc2ccc3ccccc3c2)C(=O)O)cc1OC` [Compound H-266], the entry is “+”. Still for that read-out and setting: with `O=C(O[C@H](Cc1ccc2ccccc2c1)C(=O)O)c1ccc(Cl)c(Cl)c1` [Compound H-269] the entry was “+”; with `O=C(O[C@H](Cc1ccc2ccccc2c1)C(=O)O)c1ccc(F)c(F)c1` [Compound H-270], “+”; with `O=C(Nc1ccccc1Oc1ccccc1)N[C@H](Cc1ccc2ccccc2c1)C(=O)O` [Compound H-334], “+++”. `O=C(Nc1ccc(C(=O)c2ccccc2)cc1)N[C@H](Cc1ccc2ccccc2c1)C(=O)O` [Compound H-341]: the Pin1 inhibition activity result is “++”. The same measure, in the same setting: with `COC(=O)[C@@H](Cc1ccc2ccccc2c1)NC(=O)CN1c2ccccc2C2C=CC=CC21` (some centres unmarked) [Compound H-521] the entry was “+”; with `O=C(Cn1c2ccccc2c2ccccc21)N[C@H](Cc1ccc2ccccc2c1)C(=O)O` [Compound H-536], “+”.

The same series, now with this note: cell-based assay, 293T cells, compound at 100 μM.
Consider `O=C(N[C@H](Cc1ccc2ccccc2c1)C(=O)OCc1ccccc1)C1c2ccccc2-c2ccccc21` [Compound H-105], for which the “Pin1 inhibition activity (in words)” value is recorded as “no Pin1 inhibition activity”.

The test system of the next series is NASH model mice (HFDT).
Assay: not given
The settings on record: HFDT NASH mice, 8 weeks; i.p. 2.5 mg/kg/day or oral 5.0 mg/kg/day three times a week. The method, then:
Animal experiments were performed using non-alcoholic steatohepatitis (NASH) model mice to test the compounds synthesized in Examples for the therapeutic effect on NASH.
NASH model mice (hereinafter referred to as “NASH mice”) were produced by feeding a high-fat diet containing trans fatty acids (HFDT) to individual male laboratory mice (C57BL/6J) for 8 weeks. […] In addition, a normal diet was given to individual male laboratory mice (C57BL/6J) for 8 weeks to prepare control mice.
As for `COC(=O)[C@@H](Cc1ccc2ccccc2c1)NC(=O)n1c2ccccc2c2ccccc21` [Compound H-144], the “blood ALT (GPT) value, index of liver inflammation” value was “decreased”; the “fasting blood glucose level” value is listed as “no significant abnormality”; the “increase in liver weight” value was “significantly reduced”.

Staying with this series, now noted: HFDT NASH mice, 8 weeks; oral 5.0 mg/kg/day three times a week.
With `O=C1C=CC(=O)c2c(O)cccc21` [Juglone, reference compound], the “fasting blood glucose level” value was “abnormal increase” and the “increase in liver weight” value is reported as “significantly reduced”.

The series is the same for the next values; noted with them: HFDT NASH mice; i.p. 2.5 mg/kg/day three times a week.
Regarding `O=C1C=CC(=O)c2c(O)cccc21` [Juglone, reference compound], the death of mice result is “all dead within 8 weeks”.

The series is the same for the next values; noted with them: HFDT NASH mice; oral 5.0 mg/kg/day three times a week.
Consider `O=C1C=CC(=O)c2c(O)cccc21` [Juglone, reference compound], for which the death of mice result is given as “not dead”.
